Test [1] deals with T1, RARα (Homo sapiens, UniProt P10276).
T1 construct: expressed in transfected cells; host or cells: CV1
T1 sequence (P10276 1-462): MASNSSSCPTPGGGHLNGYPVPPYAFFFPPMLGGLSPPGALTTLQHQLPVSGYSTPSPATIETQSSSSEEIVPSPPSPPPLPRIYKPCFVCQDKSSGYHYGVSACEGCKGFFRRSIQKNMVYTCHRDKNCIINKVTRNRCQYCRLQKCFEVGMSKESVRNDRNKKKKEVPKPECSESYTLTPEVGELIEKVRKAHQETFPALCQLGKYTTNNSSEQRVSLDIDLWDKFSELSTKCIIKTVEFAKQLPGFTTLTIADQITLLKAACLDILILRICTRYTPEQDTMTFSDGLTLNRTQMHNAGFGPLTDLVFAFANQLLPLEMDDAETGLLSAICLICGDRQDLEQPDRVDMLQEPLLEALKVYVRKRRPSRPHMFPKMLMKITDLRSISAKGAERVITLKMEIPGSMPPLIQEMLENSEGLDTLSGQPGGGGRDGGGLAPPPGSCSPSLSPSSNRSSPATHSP
Nature of the test: Holoreceptor transactivation assay, RARα. It counts as cell-based. The conditions noted are these: CV-1; CV1 cells; relative to all trans retinoic acid; read-out: Transactivation Assay Efficacy (% of RA activity), RARα. The text has this:
(§1) A holoreceptor transactivation assay and a ligand binding assay which measure the ability of the compounds of the invention to bind to the several retinoid receptor subtypes, respectively, are described in published PCT Application No. WO W093/11755 (particularly on pages 30-33 and 37-41) published on Jun. 24, 1993, the specification of which is also incorporated herein by reference. A description of the holoreceptor transactivation assay is also provided below.
(§2) CV1 cells (5,000 cells/well) were transfected with an RAR reporter plasmid MTV-TREp-LUC (50 ng) along with one of the […] expression vectors (10 ng) in an automated 96-well format by the calcium phosphate procedure of Heyman et al. Cell 68, 397-406. (8). For RXRα and RXR.GAMMA. transactivation assays, an RXR-responsive reporter plasmid CRBPII-tk-LUC (50 ng) along with the appropriate RXRexpression vectors (10 ng) was used substantially as described by Heyman et al. above, and Allegretto et al. J. Biol. Chem. 268, 26625-26633. For RXRβ transactivation assays, an RXR-responsive reporter plasmid CPRE-tk-LUC ([…]) along with RXRβ expression vector ([…]) was used as described in above. These reporters contain DRI elements from human CRBPII and certain DRI elements from promoter, respectively. (see Mangelsdorf et al. The Retinoids: Biology, Chemistry and Medicine, pp 319-349, Raven Press Ltd., New York and Heyman et al., cited above) (1, 8). A β-galactosidase (50 ng) expression vector was used as an internal control in the transfections to normalize for variations in transfection efficiency. The cells were transfected in triplicate for 6 hours, followed by incubation with retinoids for 36 hours, and the extracts were assayed for luciferase and β-galactosidase activities. The detailed experimental procedure for holoreceptor transactivations has been described in Heyman et al. above, and Allegretto et al. cited above. The results obtained in this assay in connection with examplary compounds in accordance with the present invention are expressed in EC50 numbers, as they are also in the chimeric receptor transactivation assay. The Heyman et al. Cell 68, 397-406, Allegretto et al. J. Biol. Chem. 268, 26625-26633, and Mangelsdorf et al. The Retinoids: Biology, Chemistry and Medicine, pp 319-349, Raven Press Ltd., New York, are expressly incorporated herein by reference. The results of ligand binding assay are expressed in Kd numbers. (See Cheng et al. Biochemical Pharmacology Vol. 22 pp 3099-3108, expressly incorporated herein by reference.)

For test [2], the target named is T1, RARα. Description: Ligand binding assay, RARα.
Description: as §1, §2

For test [3], the target named is T2, RXRβ (Mus musculus, UniProt P28704).
T2 construct: expressed in transfected cells; host or cells: CV1
T2 sequence (P28704 1-520): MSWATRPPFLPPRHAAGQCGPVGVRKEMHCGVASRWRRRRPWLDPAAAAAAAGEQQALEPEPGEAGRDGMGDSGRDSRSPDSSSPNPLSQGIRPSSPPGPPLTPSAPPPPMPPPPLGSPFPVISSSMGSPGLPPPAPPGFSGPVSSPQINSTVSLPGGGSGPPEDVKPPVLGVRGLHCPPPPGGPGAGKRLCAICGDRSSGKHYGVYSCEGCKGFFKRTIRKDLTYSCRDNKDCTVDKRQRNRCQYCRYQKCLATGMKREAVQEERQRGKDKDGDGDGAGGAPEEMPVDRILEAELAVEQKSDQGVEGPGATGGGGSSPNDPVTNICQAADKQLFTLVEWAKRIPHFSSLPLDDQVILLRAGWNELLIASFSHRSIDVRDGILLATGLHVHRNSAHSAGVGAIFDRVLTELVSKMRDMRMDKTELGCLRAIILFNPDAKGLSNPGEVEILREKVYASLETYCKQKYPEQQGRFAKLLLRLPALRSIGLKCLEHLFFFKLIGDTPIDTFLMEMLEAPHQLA
Description: Ligand binding assay, RXRβ.
Description: as §1, §2

For test [4], the target named is T3, RXRγ (Mus musculus, UniProt P28705).
T3 construct: expressed in transfected cells; host or cells: CV1
T3 sequence (P28705 1-463): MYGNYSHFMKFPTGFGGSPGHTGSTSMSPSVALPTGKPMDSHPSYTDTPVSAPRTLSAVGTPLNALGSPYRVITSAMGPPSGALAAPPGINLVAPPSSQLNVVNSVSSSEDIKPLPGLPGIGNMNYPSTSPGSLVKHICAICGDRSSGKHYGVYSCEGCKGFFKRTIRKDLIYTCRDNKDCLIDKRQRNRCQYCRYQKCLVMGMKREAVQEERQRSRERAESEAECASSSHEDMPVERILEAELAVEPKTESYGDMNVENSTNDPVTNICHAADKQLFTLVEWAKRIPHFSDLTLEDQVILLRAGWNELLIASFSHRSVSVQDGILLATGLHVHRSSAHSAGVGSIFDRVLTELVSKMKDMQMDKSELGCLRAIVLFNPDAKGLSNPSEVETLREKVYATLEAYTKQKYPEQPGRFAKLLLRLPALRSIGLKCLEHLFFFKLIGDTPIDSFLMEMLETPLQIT
Nature of the test: Ligand binding assay, RXRγ.
Description: as §1, §2

Results on 7 compounds are retold here after US5672710A, “Sulfides, sulfoxides and sulfones disubstituted with a tetrahydronaphthalenyl, chromanyl, thiochromanyl or tetrahydroquinolinyl and substituted phenyl or heteroaryl group, having retinoid-like biological activity” (priority 1995, dated 1997).

Molecules are shown by their SMILES.

Usually Kd stands for a measure of binding affinity in units of concentration.

For the compound `CC1(C)CCC(C)(C)c2cc(Sc3ccc(C(=O)O)cc3)ccc21` [Compound 2], in test [1], the Emax was 3%. Also, the dissociation constant (Kd) in test [2] and in test [3] was above 1 µM throughout.
`CC1(C)CCC(C)(C)c2cc(S(=O)(=O)c3ccc(C(=O)O)cc3)ccc21` [Compound 5, 4-(5,6,7,8-tetrahydro-5,5,8,8-tetramethyl-2-naphthylsulfonyl)benzoic acid]: in test [1], the Emax worked out at 10%. Besides, the Kd in test [2], in test [3] and in test [4] was above 1 µM in each case.
In the case of `Cc1cc2c(cc1Sc1ccc(C(=O)O)cc1)C(C)(C)CCC2(C)C` [Compound 7, 4-(5,6,7,8-tetrahydro-3,5,5,8,8-pentamethyl-2-Daphthylthio)benzoic acid], the Emax in test [1] turned out to be 3%. In addition, the dissociation constant Kd is above 1 µM in test [2], 0.302 µM in test [3] and 0.304 µM in test [4].
Take `Cc1cc2c(cc1[S+]([O-])c1ccc(C(=O)O)cc1)C(C)(C)CCC2(C)C` (centres unmarked) [Compound 9, 4-(5,6,7,8-tetrahydro-3,5,5,8,8-pentamethyl-2-naphthylsulfoxy)benzoic acid]: the Emax in test [1] stood at 5%. Further, the Kd in test [2], in test [3] and in test [4] was above 1 µM in each case.
In the case of `Cc1cc2c(cc1S(=O)(=O)c1ccc(C(=O)O)cc1)C(C)(C)CCC2(C)C` [Compound 11, 4-(5,6,7,8-tetrahydro-3,5,5,8,8-pentamethyl-2-naphthylsulfonyl)benzoic acid], in test [1], the Emax came out at 2%. The Kd in test [2] and in test [4] was above 1 µM each time.
On to `Cc1cc2c(cc1Sc1ccc(C(=O)O)cn1)C(C)(C)CCC2(C)C` [Compound 13], for which, in test [1], the Emax came out at 1%. For the same compound, the Kd in test [2] was above 10 µM; in test [3], 0.057 µM; in test [4], 0.073 µM.
In the same order, the values of `Cc1cc2c(cc1Sc1ncc(C(=O)O)s1)C(C)(C)CCC2(C)C` [Compound 15, 2-(5,6,7,8-Tetrahydro-3,5,5,8,8-pentamethyl-2-naphthylthio)-5-thiazolecarboxylic acid] are 1%, above 1 µM, above 1 µM and above 1 µM.
